Experimental data as given in US20210030005A1, “BENZOXABOROLE COMPOSITIONS HAVING A GROWTH ENHANCING EFFECT” (BORAGEN, INC., priority 2018, published 2021).

Legend:
Assay type in all cases: in vivo
[1] = test system: broccoli; assay: Soil drench growth enhancing effect, broccoli; settings: for Average Dry Matter Weight / Average Root Length / Average Shoot Height: 4 treatments every 14 days, 14 days after final treatment
Method: (§1) Boron-containing compounds/compositions were applied directly to the soil, and the growth of plants was measured. An exemplary embodiment of a benzoxaborole compound includes 5-chlorobenzo[c][1,2]oxaborol-1(3H)-ol, which may be referred to herein as BAG8.
(§2) Eight 2-gallon pots were filled with steamed soil for each of the five treatments listed below:
(§3) 3-4 seeds were planted into each pot at a depth of 1 inch and covered. All seedlings were subjected to 16 hours of daylight at ˜800 μmol/m^2/second (light intensity) provided by cool-white fluorescent lamps. Daytime temperatures were ˜25° C. and were dropped to ˜18° C. at night.
(§4) Solutions were prepared by first dissolving the appropriate amount of benzoxaborole in ethanol or acetone then adding to distilled water. 100 mL of treatment was applied to each pot in a circular motion to evenly coat the surface of the soil. These treatments were applied every 14 days for a total of 4 treatments, including the at-planting treatment. Each pot was monitored, and 50 mL of distilled water was added to each pot when soil was dry.
(§5) Germination and shoot height data were recorded every seven days. 14 days after the final treatment application, plants were carefully removed from each pot and final shoot length, root length, and dry matter weight were recorded.
(§6) This experiment was conducted on red table beet, broccoli, snow pea, turnips, and spring wheat.

[2] = test system: snow pea; assay: Soil drench growth enhancing effect, snow pea; settings: for growth effect compared to untreated control: soil drench; for Average Dry Matter Weight / Average Root Length / Average Shoot Height: 4 treatments every 14 days, 14 days after final treatment
Method: as §1, §2, §3, §4, §5, §6

[3] = test system: spring wheat; assay: Soil drench growth enhancing effect, spring wheat; settings: for Average Dry Matter Weight / Average Root Length / Average Shoot Height: 4 treatments every 14 days, 14 days after final treatment
Method: as §1, §2, §3, §4, §5, §6

[4] = test system: turnips; assay: Soil drench growth enhancing effect, turnip; settings: for Average Dry Matter Weight / Average Root Length / Average Shoot Height: 4 treatments every 14 days, 14 days after final treatment
Method: as §1, §2, §3, §4, §5, §6

[5] = test system: diseased maize; assay: Field trial, yield of diseased maize
Method: (§7) In this example, diseased maize having Southern Rust of Maize (Puccinia polysora) was treated with BAG8, Azoxystrobin, and Boscalid. Testing was performed to assess the fungicidal effect of the compounds on Southern Rust of Maize (Puccinia polysora) and to assess the growth enhancing effect of the compounds on the diseased maize.
(§8) Maize was planted into 6×30 ft plots and replicated four times in a randomized complete block design. Three treatments and an untreated control were tested for efficacy against Southern Rust of Maize (Puccinia polysora) and assessed for yield at the conclusion of the growing season. Foliar applications of the three treatments, BAG8 at 0.25 pounds of active ingredient per acre, azoxystrobin at 0.25 pounds of active ingredient per acre, and boscalid at 0.24 pounds of active ingredient per acre, were applied to the plots at growth stage V8. Best practices were used consistently across the test plots with regard to field conditions such as fertilization, insect control, weed control, and irrigation. Disease assessments were taken in each plot 28 days after the foliar fungicide application. At maturity, each plot was harvested using standard harvesting equipment. After shelling, the kernels were weighed at 11% moisture and yield calculations extrapolated to bushels per acre.
(§9) Analysis of variance (ANOVA) was used to examine disease severity data and means were separated using Fisher's least significant difference (LSD) method at α=0.05. […]

[6] = test system: Southern Rust of Maize (Puccinia polysora); assay: Field trial, Southern Rust of Maize severity on maize
Method: as §7, §8, §9

[7] = all rates (0.12-0.60 lb/A), soil drench
[8] = treatment B, 0.12 lb/A soil drench
[9] = treatment C, 0.25 lb/A soil drench
[10] = treatment D, 0.35 lb/A soil drench
[11] = treatment E, 0.60 lb/A soil drench

## OB1OCc2cc(Cl)ccc21 [BAG8, 5-chlorobenzo[c][1,2]oxaborol-1(3H)-ol]
[1]; [7]
  root length and dry matter weight compared with untreated control: longer roots and greater dry matter weight than the untreated control
[1]; all rates, soil drench
  treatment effect on average shoot height: no treatment effect was present
[1]; [8]
  Average Dry Matter Weight: 10.70 mg
  Average Root Length: 5.60 cm
  Average Shoot Height: 4.50 cm
[1]; [9]
  Average Dry Matter Weight: 11.10 mg
  Average Root Length: 5.20 cm
  Average Shoot Height: 4.40 cm
[1]; [10]
  Average Dry Matter Weight: 11.30 mg
  Average Root Length: 5.30 cm
  Average Shoot Height: 4.90 cm
[1]; [11]
  Average Dry Matter Weight: 13.00 mg
  Average Root Length: 6.50 cm
  Average Shoot Height: 4.50 cm
[2]; 0.25 pounds per acre
  growth effect compared to untreated control: increased the shoot height, root length, and dry matter weight
[2]; rates other than 0.25 pounds per acre
  growth effect compared to untreated control: does not increase average shoot height, average root length, or average dry matter weight
[2]; [8]
  Average Dry Matter Weight: 102.70 mg
  Average Root Length: 7.10 cm
  Average Shoot Height: 6.90 cm
[2]; [9]
  Average Dry Matter Weight: 280.10 mg
  Average Root Length: 12.10 cm
  Average Shoot Height: 13.10 cm
[2]; [10]
  Average Dry Matter Weight: 185.70 mg
  Average Root Length: 8.00 cm
  Average Shoot Height: 9.40 cm
[2]; [11]
  Average Dry Matter Weight: 130.90 mg
  Average Root Length: 7.90 cm
  Average Shoot Height: 6.50 cm
[3]; [7]
  growth effect compared with untreated control: longer shoots, longer roots, and greater dry matter weight than the untreated control
[3]; applied at 0.12 and 0.25 pounds per acre, soil drench
  increase in final dry matter weight of wheat: ~250%
[3]; [8]
  Average Dry Matter Weight: 1204.30 mg
  Average Root Length: 21.30 cm
  Average Shoot Height: 39.50 cm
[3]; [9]
  Average Dry Matter Weight: 1123.60 mg
  Average Root Length: 24.40 cm
  Average Shoot Height: 39.70 cm
[3]; [10]
  Average Dry Matter Weight: 640.20 mg
  Average Root Length: 20.40 cm
  Average Shoot Height: 37.50 cm
[3]; [11]
  Average Dry Matter Weight: 649.70 mg
  Average Root Length: 22.00 cm
  Average Shoot Height: 39.90 cm
[4]; [7]
  growth effect compared with untreated control: longer shoots, longer roots, and greater dry matter weight than the untreated control
[4]; [8]
  Average Dry Matter Weight: 6.40 mg
  Average Root Length: 3.67 cm
  Average Shoot Height: 1.81 cm
[4]; [9]
  Average Dry Matter Weight: 7.62 mg
  Average Root Length: 4.96 cm
  Average Shoot Height: 2.09 cm
[4]; [10]
  Average Dry Matter Weight: 7.82 mg
  Average Root Length: 4.02 cm
  Average Shoot Height: 2.18 cm
[4]; [11]
  Average Dry Matter Weight: 6.36 mg
  Average Root Length: 3.15 cm
  Average Shoot Height: 2.13 cm
[5]; 0.25 lb ai/A foliar
  increased yield relative to untreated control: 194%
[5]; 0.25 lb ai/A foliar at V8, harvest at maturity, 11% moisture
  Yield: 146.2 a bu/A
[6]; 0.25 lb ai/A foliar
  reduced disease relative to the untreated control: 70%
[6]; 0.25 lb ai/A foliar at V8, 28 days after application
  Disease Severity (% Leaf Coverage): 19.6 b % Leaf Coverage
